System: UDP-glycosyltransferase GpUGT23
Test: In vitro glycosyltransferase assay of purified recombinant GpUGT23 with ginsenoside substrates and UDP-glucose
Type: biochemical, Dolwoe (Gynostemma pentaphyllum)
Details: purified GpUGT23 30 μg, ginsenoside 5 mM, UDP-glucose 50 mM, 10 mM PBS pH 7, 37° C., 12 hours, products: CK->gypenoside LXXV, F2->gypenoside XVII, Rd->Rb1, F1->notoginsenoside U; for conversion of the ginsenoside by GpUGT23 (glycosyltransfer activity), HPLC: UV 203 nm (FIGS. 3 and 4); for conversion of the ginsenoside by GpUGT23 (glycosyltransfer activity), TLC: TLC (FIG. 2)
Procedure: A glycosyltransferase assay was performed in a reaction buffer (10 mM PBS buffer, pH 7) containing the purified GpUGT23 (30 μg), a ginsenoside compound (5 mM) and UDP-glucose (50 mM). For this assay, 4 different types of ginsenosides, including CK (Compound K), F2, Rd, and F1, were used and reacted with the enzyme of the present invention.
The reaction mixture was incubated at 37° C. for 12 hours, and then the products were analyzed by thin-layer chromatography (TLC) or high performance liquid chromatography (HPLC).
TLC analysis was performed using a mobile phase (acetone:methanol:DDW=65:35:10 vol/vol) and a 60F254 silica gel plate (Merck, Germany). The resolved product on the TLC plate was detected by spraying the plate with 10% (vol/vol) sulfuric acid (H2SO4) and heating it at 110° C. for 5 minutes (FIG. 2).
HPLC analysis was performed using ODS(2) C18 column (Phenomenex, USA). Water and acetonitrile gradient application time and a component ratio are as follows: at a flow rate of 1 mL per minute, at 0 minutes, 68% water and 32% acetonitrile; 8 minutes, 35% water and 65% acetonitrile; 12 minutes, 0% water and 100% acetonitrile; 20 minutes, 0% water and 100% acetonitrile; 20.1 minutes, 68% water and 32% acetonitrile; and 28 minutes, 68% water and 32% acetonitrile (FIGS. 3 and 4).
Ginsenosides were detected by using a UV-detector (Agilent, USA) at a wavelength of 203 nm.
Substrate specificity and regioselectivity of GpUGT23 were examined by the method described in Example 2.
First, the recombinant GpUGT of Example 1, GpUGT23, was reacted with 9 types of ginsenosides (PPD, Rh2, Rg3, CK, F2, Rd, PPT, F1, and Rh1) in the presence of UDP-glucose, and the reaction products of CK, F2, Rd, and F1 were analyzed by TLC (thin-layer chromatography).
To further analyze these, 4 different types of ginsenosides (CK, F2, Rd, and F1) were incubated with GpUGT23, and then the products converted by the recombinant GpUGT23 were analyzed by TLC, and the results are shown in FIG. 2. The results were confirmed by comparing their migrating spots with migrating spots of CK, Gyp75 (gypenoside LXXV), F2, Gyp17 (gypenoside XVII), Rd, Rb1, and F1 used as reference samples.

conversion of the ginsenoside by GpUGT23 (glycosyltransfer activity), HPLC	conversion of the ginsenoside by GpUGT23 (glycosyltransfer activity), TLC	SMILES
converted	converted	CC(C)=CCC[C@](C)(O[C@@H]1O[C@H](CO)[C@@H](O)[C@H](O)[C@H]1O)[C@H]1CC[C@]2(C)[C@@H]1[C@H](O)C[C@@H]1[C@@]3(C)CC[C@H](O[C@@H]4O[C@H](CO)[C@@H](O)[C@H](O)[C@H]4O)C(C)(C)[C@@H]3CC[C@]12C [F2]
converted	converted	CC(C)=CCC[C@](C)(O[C@@H]1O[C@H](CO)[C@@H](O)[C@H](O)[C@H]1O)[C@H]1CC[C@]2(C)[C@@H]1[C@H](O)C[C@@H]1[C@@]3(C)CC[C@H](O)C(C)(C)[C@@H]3[C@@H](O)C[C@]12C [F1]
converted	converted	CC(C)=CCC[C@](C)(O[C@@H]1O[C@H](CO)[C@@H](O)[C@H](O)[C@H]1O)[C@H]1CC[C@]2(C)[C@@H]1[C@H](O)C[C@@H]1[C@@]3(C)CC[C@H](O)C(C)(C)[C@@H]3CC[C@]12C [CK, Compound K]
did not transfer a sugar	–	CC(C)=CCC[C@](C)(O)[C@H]1CC[C@]2(C)[C@@H]1[C@H](O)C[C@@H]1[C@@]3(C)CC[C@H](O)C(C)(C)[C@@H]3[C@@H](O[C@@H]3O[C@H](CO)[C@@H](O)[C@H](O)[C@H]3O[C@@H]3O[C@@H](C)[C@H](O)[C@@H](O)[C@H]3O)C[C@]12C [Rg2]
did not react	–	CC(C)=CCC[C@](C)(O)[C@H]1CC[C@]2(C)[C@@H]1[C@H](O)C[C@@H]1[C@@]3(C)CC[C@H](O[C@@H]4O[C@H](CO)[C@@H](O)[C@H](O)[C@H]4O[C@@H]4O[C@H](CO)[C@@H](O)[C@H](O)[C@H]4O)C(C)(C)[C@@H]3CC[C@]12C [Rg3]
converted	converted	CC(C)=CCC[C@](C)(O[C@@H]1O[C@H](CO)[C@@H](O)[C@H](O)[C@H]1O)[C@H]1CC[C@]2(C)[C@@H]1[C@H](O)C[C@@H]1[C@@]3(C)CC[C@H](O[C@@H]4O[C@H](CO)[C@@H](O)[C@H](O)[C@H]4O[C@@H]4O[C@H](CO)[C@@H](O)[C@H](O)[C@H]4O)C(C)(C)[C@@H]3CC[C@]12C [Rd]

SMILES	conversion of the ginsenoside by GpUGT23 (glycosyltransfer activity), HPLC	conversion of the ginsenoside by GpUGT23 (glycosyltransfer activity), TLC
CC(C)=CCC[C@](C)(O)[C@H]1CC[C@]2(C)[C@@H]1[C@H](O)C[C@@H]1[C@@]3(C)CC[C@H](O)C(C)(C)[C@@H]3[C@@H](O[C@@H]3O[C@H](CO)[C@@H](O)[C@H](O)[C@H]3O)C[C@]12C [Rh1]	did not react	–
CC(C)=CCCC(C)(O)[C@H]1CC[C@]2(C)[C@@H]1[C@H](O)C[C@@H]1[C@@]3(C)CC[C@H](O)C(C)(C)[C@@H]3CC[C@]12C (stereo in doubt) [PPD, protopanaxadiol]	did not react	–
CC(C)=CCC[C@](C)(O)[C@H]1CC[C@]2(C)[C@@H]1[C@H](O)C[C@@H]1[C@@]3(C)CC[C@H](O)C(C)(C)[C@@H]3[C@@H](O)C[C@]12C [PPT, protopanaxatriol]	did not react	–
CC(C)=CCC[C@](C)(O)[C@H]1CC[C@]2(C)[C@@H]1[C@H](O)C[C@@H]1[C@@]3(C)CC[C@H](O[C@@H]4O[C@H](CO)[C@@H](O)[C@H](O)[C@H]4O)C(C)(C)[C@@H]3CC[C@]12C [Rh2]	did not react	–

— patent US9896710B2, “Glycosyltransferase derived from Dolwoe and use thereof” (KOREA ADVANCED INSTITUTE OF SCIENCE AND TECHNOLOGY, priority 2014, dated 2018)
